ChEMBL document CHEMBL6087474, “Discovery of an Efficacious RET PROTAC Degrader with Enhanced Antiproliferative Activity against Resistant Cancer Cells Harboring RET Solvent-Front Mutations” (J Med Chem, 2025)
Calls of active or inactive are those of the source. No cut-off for these calls is given here.

What was measured:
[1] = PROTAC activity at CRBN/KIF5B-RET-G810R mutant (unknown origin) expressed in mouse BaF3 cells assessed as induction of RET degradation measured after 6 hrs by Western blot analysis; type: cell-based; conditions: BaF3, 6 h
[2] = PROTAC activity at CRBN/KIF5B-RET (unknown origin) expressed in mouse BaF3 cells assessed as induction of RET degradation measured after 6 hrs by Western blot analysis; conditions: Homo sapiens, BaF3, 6 h
[3] = tested on: BaF3; assay: Antiproliferative activity against mouse BaF3 cells stably expressing KIF5B-RET-V804L mutant incubated for 72 hrs by CCK-8 assay; type: functional, cell-based; conditions: BaF3, 72 h
[4] = Effect on RET protein level in mouse BaF3 cells stably expressing KIF5B-RET-V804M mutant assessed as fold change at 300 nM measured after 6 hrs by Western blot analysis (reference value: 1); type: functional
[5] = tested on: BaF3; assay: PROTAC activity at CRBN/CK1alpha in mouse BaF3 cells overexpressing KIF5B-RET assessed as induction of […] at 10 to 1000 nM incubated for 6 hrs by Western blot analysis; type: cell-based; conditions: dose 10-1000 nM
[6] = Induction of apoptosis in mouse BaF3 cells stably expressing KIF5B-RET-G810C mutant assessed as early apoptotic cells at 100 nM measured after 48 hrs by Annexin V-FITC/7-AAD staining based flow cytometric analysis (reference value: 8.57 %); type: functional
[7] = Induction of apoptosis in mouse BaF3 cells stably expressing wildtype KIF5B-RET fusion protein assessed as early apoptotic cells at 100 nM measured after 48 hrs by Annexin V-FITC/7-AAD staining based flow cytometric analysis (reference value: 9.92 %); type: functional
[8] = Effect on Shc protein level in mouse BaF3 cells stably expressing KIF5B-RET-G810R mutant assessed as fold change at 33.3 nM measured after 6 hrs by Western blot analysis (reference value: 1); type: functional
[9] = tested on: BaF3; assay: Antiproliferative activity against mouse BaF3 cells stably expressing CCDC6-RET incubated for 72 hrs by CCK-8 assay; type: functional, cell-based; conditions: BaF3, 72 h
[10] = Induction of apoptosis in mouse BaF3 cells stably expressing KIF5B-RET-G810C mutant assessed as late apoptotic cells at 100 nM measured after 48 hrs by Annexin V-FITC/7-AAD staining based flow cytometric analysis (reference value: 1.96 %); type: functional
[11] = tested on: BaF3; assay: PROTAC activity at CRBN/KIF5B-RET (unknown origin) expressed in mouse BaF3 cells assessed as induction of RET degradation at 10 nM measured after 6 hrs by Western blot analysis relative to control; type: cell-based
[12] = Effect on RET protein level in mouse BaF3 cells stably expressing KIF5B-RET-G810R mutant assessed as fold change at 11.1 nM measured after 6 hrs by Western blot analysis (reference value: 1); type: functional
[13] = AUC in male ICR mouse at 10 mg/kg, ip measured after 24 hrs by LC-MS/MS analysis; type: ADME, organism-based; conditions: in vivo
[14] = Induction of apoptosis in mouse BaF3 cells stably expressing wildtype KIF5B-RET fusion protein assessed as early apoptotic cells at 33.3 nM measured after 48 hrs by Annexin V-FITC/7-AAD staining based flow cytometric analysis (reference value: 9.92 %); type: functional
[15] = Induction of apoptosis in mouse BaF3 cells stably expressing wildtype KIF5B-RET fusion protein assessed as necrotic cells at 33.3 nM measured after 48 hrs by Annexin V-FITC/7-AAD staining based flow cytometric analysis (reference value: 2.40 %); type: functional
[16] = Effect on RET protein level in mouse BaF3 cells stably expressing KIF5B-RET-G810C mutant assessed as fold change at 33.3 nM measured after 6 hrs by Western blot analysis (reference value: 1); type: functional
[17] = Induction of apoptosis in mouse BaF3 cells stably expressing KIF5B-RET-G810C mutant assessed as early apoptotic cells at 33.3 nM measured after 48 hrs by Annexin V-FITC/7-AAD staining based flow cytometric analysis (reference value: 8.57 %); type: functional
[18] = Induction of apoptosis in mouse BaF3 cells stably expressing wildtype KIF5B-RET fusion protein assessed as viable cells at 300 nM measured after 48 hrs by Annexin V-FITC/7-AAD staining based flow cytometric analysis (reference value: 86.65 %); type: functional; conditions: read-out: Activity
[19] = Effect on RET protein level in mouse BaF3 cells stably expressing wildtype KIF5B-RET assessed as fold change at 11.1 nM measured after 6 hrs by Western blot analysis (reference value: 1); type: functional
[20] = Induction of apoptosis in mouse BaF3 cells stably expressing KIF5B-RET-G810C mutant assessed as viable cells at 33.3 nM measured after 48 hrs by Annexin V-FITC/7-AAD staining based flow cytometric analysis (reference value: 86.58 %); type: functional; conditions: read-out: Activity
[21] = Effect on Shc protein level in mouse BaF3 cells stably expressing KIF5B-RET-G810C mutant assessed as fold change at 11.1 nM measured after 6 hrs by Western blot analysis (reference value: 1); type: functional
[22] = tested on: BaF3; assay: Antitumor activity against mouse BaF3 cells stably expressing KIF5B-RET-G810C mutant implanted in male BALB/c mouse model assessed as tumor growth inhibition at 10 mg/kg, ip administered daily for 14 days relative to control; type: functional; conditions: BaF3, 336 h, time 14 day, read-out: TGI
[23] = Effect on RET protein level in mouse BaF3 cells stably expressing wildtype KIF5B-RET assessed as fold change at 300 nM measured after 6 hrs by Western blot analysis (reference value: 1); type: functional
[24] = Potency index, ratio of selpercatinib IC50 to test compound IC50 for antiproliferative activity against mouse BaF3 cells stably expressing KIF5B-RET-G810S mutant incubated for 72 hrs by CCK-8 assay; type: functional
[25] = Effect on Shc protein level in mouse BaF3 cells stably expressing KIF5B-RET-G810R mutant assessed as fold change at 11.1 nM measured after 6 hrs by Western blot analysis (reference value: 1); type: functional
[26] = PROTAC activity at CRBN/KIF5B-RET-V804M mutant (unknown origin) expressed in mouse BaF3 cells assessed as induction of RET degradation measured after 6 hrs by Western blot analysis; type: cell-based; conditions: BaF3, 6 h
[27] = Effect on RET protein level in mouse BaF3 cells stably expressing KIF5B-RET-G810R mutant assessed as fold change at 300 nM measured after 6 hrs by Western blot analysis (reference value: 1); type: functional
[28] = Induction of apoptosis in mouse BaF3 cells stably expressing wildtype KIF5B-RET fusion protein assessed as late apoptotic cells at 11.1 nM measured after 48 hrs by Annexin V-FITC/7-AAD staining based flow cytometric analysis (reference value: 1.03 %); type: functional
[29] = PROTAC activity at CRBN/KIF5B-RET-G810C mutant (unknown origin) expressed in mouse BaF3 cells assessed as induction of RET degradation measured after 6 hrs by Western blot analysis; type: cell-based; conditions: BaF3, 6 h
[30] = Potency index, ratio of selpercatinib IC50 to test compound IC50 for antiproliferative activity against mouse BaF3 cells stably expressing KIF5B-RET-G810C mutant incubated for 72 hrs by CCK-8 assay; type: functional

SMILES: COc1ccc(CN2C3CC2CN(c2ccc(-c4cc(-c5cnn(C6CCN(CCCCCC#Cc7cccc8c7CN(C7CCC(=O)NC7=O)C8=O)CC6)c5)cn5ncc(C#N)c45)cn2)C3)cn1 (stereo not given)
- DC50 [1]: > 300 nM
- DC50 [2]: 4.7 nM
- IC50 [3]: 50 nM
- fold change (FC) [4]: 0.1
- Activity [5]: inactive
- Activity [6]: 19.9%
- Activity [7]: 33.58%
- fold change (FC) [8]: 0.9
- IC50 [9]: 10 nM
- Activity [10]: 2.61%
- Activity [11]: 60%
- fold change (FC) [12]: 1
- AUC at 24 h [13]: 680 ng·h/mL
- Activity [14]: 20.96%
- Activity [15]: 1.79%
- fold change (FC) [16]: 0.6
- Activity [17]: 10.15%
- viability at 0.3 µM [18]: 50.2%
- fold change (FC) [19]: 0.5
- viability at 0.0333 µM [20]: 85.5%
- fold change (FC) [21]: 1
- inhibition in vivo at 10 mg/kg [22]: 31.6%
- fold change (FC) [23]: 0.2
- Ratio IC50 [24]: 6.3
- fold change (FC) [25]: 0.9
- DC50 [26]: 17.2 nM
- fold change (FC) [27]: 0.6
- Activity [28]: 1.84%
- DC50 [29]: 73.8 nM
- Ratio IC50 [30]: ~14
